Test results: patent publication US20260207618A1, “PYRIMIDINE CARBOXAMIDE COMPOUNDS” (Acrivon Therapeutics, Inc., priority 2022, published 2026)

Assays:
[1] = biological target: T1, recombinant human Wee1A kinase (Homo sapiens, UniProt P30291); experiment: LanthaScreen Europium (Eu) Kinase Binding Assay, Wee1A kinase (TR-FRET tracer displacement); settings: 30 nM tracer 178, 5 nM Wee1A kinase, 60 minutes at room temperature
T1 construct: full length Wee1A kinase was expressed by baculovirus in insect cells; purchased Invitrogen PV3817; host or cells: insect cells (baculovirus)
T1 sequence (P30291 whole entry): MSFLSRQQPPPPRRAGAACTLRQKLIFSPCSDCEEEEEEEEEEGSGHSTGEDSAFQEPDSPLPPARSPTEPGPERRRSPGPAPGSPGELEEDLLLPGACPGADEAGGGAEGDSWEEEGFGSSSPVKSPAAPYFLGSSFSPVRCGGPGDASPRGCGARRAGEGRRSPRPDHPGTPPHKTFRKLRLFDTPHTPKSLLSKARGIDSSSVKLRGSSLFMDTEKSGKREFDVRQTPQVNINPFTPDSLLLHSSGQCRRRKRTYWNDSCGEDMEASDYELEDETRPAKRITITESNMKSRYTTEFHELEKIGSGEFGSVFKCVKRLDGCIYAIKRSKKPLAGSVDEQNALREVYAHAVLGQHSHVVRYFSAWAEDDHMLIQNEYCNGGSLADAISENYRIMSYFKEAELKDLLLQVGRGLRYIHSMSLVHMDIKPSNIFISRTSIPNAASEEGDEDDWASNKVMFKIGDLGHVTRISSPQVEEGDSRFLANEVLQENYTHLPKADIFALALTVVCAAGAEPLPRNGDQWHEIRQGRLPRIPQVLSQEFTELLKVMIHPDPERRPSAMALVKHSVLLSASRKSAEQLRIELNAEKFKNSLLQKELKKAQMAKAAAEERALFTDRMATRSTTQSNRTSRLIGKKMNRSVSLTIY

[2] = test system: Cdk1 phosphorylated on tyrosine 15; experiment: High-content imaging of pCdk1 Y15 by immunofluorescence in ACHN cells; format: cell-based; settings: Homo sapiens, high-content imaging (IF), 4 h, 7 to 5000 nM, read-out: CDK1 Tyr15 Phosphorylation EC50 (IC50)
In short: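 ACHN cells were treated with compounds at 7–5000 nM for 4 h, then fixed, permeabilised and immunostained for pCDK1 Y15, with DAPI as nuclear counterstain. Automated imaging gave the percentage of cells with nuclear pCDK1 Y15 positivity relative to DMSO control. EC50 values came from dose-response curves.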

ACHN cells = experiment: Cell Titer Glo viability assay in ACHN cells; format: cell-based; settings: Homo sapiens, 144 h, 0.17 to 10,000 nM
Procedure: (§1) ACHN renal cell carcinoma cell line (ATCC) was cultured in Minimum Essential Medium Eagle supplemented with 10% fetal calf serum (Sigma), 1% Penicillin-Streptomycin and 10 mM HEPES buffer (HyClone). Cell cultures were kept in a humidified incubator at 37° C. and 5% CO2. Cells were routinely tested for Mycoplasma contamination.
ACHN cells were seeded at a density of 400 cells per well in tissue culture treated 384 well plates (Corning Costar). After overnight incubation, cells were treated with drugs at concentrations ranging from 0.17 to 10,000 nM. Viability compared to untreated control was assessed at 144 h using Cell Titer Glo assay 2.0 (Promega).

[3] = test system: Cdk1 phosphorylated on tyrosine 15; experiment: pCDK1 Y15 AlphaLISA target engagement assay in ACHN cells; format: cell-based; settings: Homo sapiens, treated for 4 h, 7 to 5000 nM, read-out: TE Weel (ALISA): AlphaLISA CDK1 Tyr15 Phosphorylation EC50
Procedure: as §1
For target engagement assessment, quantification of Cdk1 phosphorylated on tyrosine 15 was detected using pCDK1 Y^15 AlphaLISA assay (Perkin Elmer). ACHN cells were seeded into tissue culture treated 96-well plates (VWR) to a density of 20,000 cells per well. 24 h post seeding cells were treated for 4 h with compounds at concentrations ranging from 7 to 5000 nM. Cells were washed with PBS and lysed in 50 μl alphaLISA lysis buffer before freezing at −80° C. 10 μl of the lysate was transferred to 384 well plates and incubated with alphaLISA donor and acceptor beads according to the manufacturer's instructions. Dose response curves and EC50 values were calculated and visualized using GraphPad Prism version 9.

Row | SMILES | IC50 [1] [nM] | EC50 [2] [nM] | EC50 (ACHN cells) [nM] | EC50 [3] [nM]
1 | COc1nc(Nc2ccc(C3CCN(C)CC3)c(C)c2)ncc1C(=O)Nc1c(Cl)ccc(O)c1C [Compound 141, N-(6-chloro-3-hydroxy-2-methylphenyl)-4-methoxy-2-((3-methyl-4-(1-methylpiperidin-4-yl)phenyl)amino)pyrimidine-5-carboxamide] | ≤ 10 | ≤ 100 | ≤ 250 | –
2 | COc1nc(Nc2ccc(O[C@H]3CCN(C)C3)c(C)c2)ncc1C(=O)Nc1c(Cl)cccc1Cl [Compound 154, (S)—N-(2,6-dichlorophenyl)-4-methoxy-2-((3-methyl-4-((1-methylpyrrolidin-3-yl)oxy)phenyl)amino)pyrimidine-5-carboxamide] | ≤ 10 | 100 to 500 | – | > 2500
3 | COc1nc(Nc2ccc(O[C@H]3CCN(C)C3)c(C)c2)ncc1C(=O)Nc1c(Cl)ccc(O)c1C [Compound 155, (S)—N-(6-chloro-3-hydroxy-2-methylphenyl)-4-methoxy-2-((3-methyl-4-((1-methylpyrrolidin-3-yl)oxy)phenyl)amino)pyrimidine-5-carboxamide] | ≤ 10 | – | – | ≤ 500
4 | COc1nc(Nc2ccc(C3CCN(C)CC3)c(C#N)c2)ncc1C(=O)Nc1c(Cl)cccc1Cl [Compound 156, 2-((3-cyano-4-(1-methylpiperidin-4-yl)phenyl)amino)-N-(2,6-dichlorophenyl)-4-methoxypyrimidine-5-carboxamide] | ≤ 10 | – | – | 500 to 1000
5 | COc1nc(Nc2ccc(OCCCN(C)C)c(C)c2)ncc1C(=O)Nc1c(Cl)ccc(O)c1C [Compound 158, N-(6-chloro-3-hydroxy-2-methylphenyl)-2-((4-(3-(dimethylamino)propoxy)-3-methylphenyl)amino)-4-methoxypyrimidine-5-carboxamide] | ≤ 10 | 100 to 500 | 250 to 1000 | –
6 | COc1nc(Nc2cnn(C3CCN(C)CC3)c2)ncc1C(=O)Nc1c(Cl)cccc1Cl [Compound 163] | ≤ 10 | 100 to 500 | 250 to 1000 | > 2500
7 | COc1nc(Nc2ccc(C3CCN(C)CC3)c(C)c2)ncc1C(=O)Nc1cc(N)ccc1C [Compound 171] | 10 to 100 | – | – | > 2500
8 | COc1nc(Nc2ccc(C3CCN(C)CC3)c(C)c2)ncc1C(=O)Nc1c(C)ccc2[nH]ncc12 [Compound 172] | ≤ 10 | 100 to 500 | 250 to 1000 | 500 to 1000
9 | COc1nc(Nc2ccc3c(cnn3C3CCN(C)C3)c2)ncc1C(=O)Nc1c(Cl)cccc1Cl (centres unmarked) [Compound 173] | 10 to 100 | – | – | > 2500
10 | COc1nc(Nc2ccc3c(cnn3CCN(C)C)c2)ncc1C(=O)Nc1c(Cl)cccc1Cl [Compound 174] | ≤ 10 | – | – | > 2500
11 | COc1nc(Nc2ccc(C3CCNCC3)c(C)c2)ncc1C(=O)Nc1c(Cl)cccc1Cl [Compound 175] | ≤ 10 | ≤ 100 | ≤ 250 | ≤ 500
12 | COc1nc(Nc2ccc3c(cnn3C)c2)ncc1C(=O)Nc1c(Cl)cccc1Cl [Compound 176] | 10 to 100 | – | – | > 2500
13 | COc1nc(Nc2ccc(O[C@H]3CCNC3)c(C)c2)ncc1C(=O)Nc1c(Cl)cccc1Cl [Compound 177] | ≤ 10 | – | – | > 2500
14 | COc1nc(Nc2ccc(O[C@@H]3CCNC3)c(C)c2)ncc1C(=O)Nc1c(Cl)cccc1Cl [Compound 178] | ≤ 10 | ≤ 100 | 250 to 1000 | 500 to 1000
15 | COc1nc(Nc2ccc(OC3CCNCC3)cc2)ncc1C(=O)Nc1c(Cl)cccc1Cl [Compound 179] | ≤ 10 | 100 to 500 | 250 to 1000 | > 2500
16 | COc1nc(Nc2ccc(OC3CCNCC3)c(C)c2)ncc1C(=O)Nc1c(Cl)cccc1Cl [Compound 180] | ≤ 10 | 100 to 500 | 250 to 1000 | 500 to 1000
17 | COc1nc(Nc2ccc(C3(C#N)CCN(C)CC3)c(C)c2)ncc1C(=O)Nc1c(Cl)cccc1Cl [Compound 181] | ≤ 10 | – | – | ≤ 500
18 | COc1nc(Nc2cnn(C)c2)ncc1C(=O)Nc1c(Cl)cccc1Cl [Compound 182] | 10 to 100 | 100 to 500 | 1000 to 5000 | > 2500
19 | COc1nc(Nc2ccc(N3CCCNCC3)c(C)c2)ncc1C(=O)Nc1c(Cl)cccc1Br [Compound 205] | ≤ 10 | 100 to 500 | ≤ 250 | –
20 | COc1nc(Nc2cnn(C3CCN(C)CC3)c2)ncc1C(=O)Nc1c(Br)cccc1Br [Compound 212, N-2,6-dibromophenyl-4-methoxy-2-[1-(1-methyl-4-piperidyl)-4-pyrazolylamino]-5-pyrimidinecarboxamide] | ≤ 10 | 100 to 500 | ≤ 250 | –
21 | COc1nc(Nc2ccc(N3CCC(N(C)C)CC3)c(C)c2)ncc1C(=O)Nc1c(Cl)cccc1Br [Compound 213] | ≤ 10 | 100 to 500 | ≤ 250 | –
